Assay results reported in ChEMBL document CHEMBL1201862, “PubChem BioAssay data set” (2004).
Active and inactive are the calls of the source.

Key:
[1] = molecular target: T1, Neuropeptides B/W receptor type 1 (Homo sapiens, UniProt P48145); test: human NPBW1 receptor blockade, IC50 – cell-based, fluorescence, dose response, late-stage follow-up (AID 463251); assay type: functional
T1 sequence (P48145 whole entry): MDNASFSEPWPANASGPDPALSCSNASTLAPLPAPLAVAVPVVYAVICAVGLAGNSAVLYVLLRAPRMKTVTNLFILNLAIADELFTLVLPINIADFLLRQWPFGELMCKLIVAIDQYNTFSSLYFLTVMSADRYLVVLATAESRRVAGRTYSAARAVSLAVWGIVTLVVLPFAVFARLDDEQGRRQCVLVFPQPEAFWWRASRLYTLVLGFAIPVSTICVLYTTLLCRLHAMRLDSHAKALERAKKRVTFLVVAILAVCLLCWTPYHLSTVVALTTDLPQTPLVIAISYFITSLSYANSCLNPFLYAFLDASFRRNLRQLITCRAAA

[2] = molecular target: T2, Melanin-concentrating hormone receptor 1 (Homo sapiens, UniProt Q99705); test: Late-stage fluorescence-based counterscreen for antagonists of the G-protein coupled receptor 7 (GPR7): cell-based dose response assay to identify antagonists of the melanin-concentrating hormone receptor 1 (MCHR1). [Related pubchem assays (depositor defined):AID1861, AID1880, AID1952, AID2148, AID2251, AID2257, AID485339]; assay type: functional
[3] = molecular target: T1, Neuropeptides B/W receptor type 1; test: Fluorescence-based dose response cell-based high throughput screening assay to identify antagonists of the G-protein coupled receptor 7 (GPR7). [Related pubchem assays: 1952 (Screening assay (GPR7 antagonists).), 1880 (Summary AID.)]; assay type: functional
[4] = molecular target: T2, Melanin-concentrating hormone receptor 1; test: Fluorescence-based counterscreen for antagonists of the G-protein coupled receptor 7 (GPR7): cell-based high throughput dose response assay to identify antagonists of the melanin-concentrating hormone receptor 1 (MCHR1).; assay type: functional
[5] = molecular target: Intestinal-type alkaline phosphatase (Homo sapiens, UniProt P09923); test: Dose Response confirmation of uHTS hits from a small molecule inhibitors of human intestinal alkaline phosphatase via a luminescent assay. [Related pubchem assays (depositor defined):AID2544, AID2574]; assay type: functional
HeLa = test: viability loss in HeLa cells – cell-based, 24 h, cherry-picked samples, cytotoxicity control, dose response (AID 504726); assay type: functional; details: Homo sapiens;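 also: potency for cytotoxicity as loss of luminescence signal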
ORF 73 = ORF 73 (Human herpesvirus 8, UniProt O40947); test: KSHV LANA DNA-binding disruption – biochemical, fluorescence polarization, cherry-picked samples, dose response (AID 504725); set-up: species or system Human gammaherpesvirus 8;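 also: fluorescence polarization of a labeled DNA duplex reporting LANA DNA binding; potency is for inhibitors that block LANA binding to the DNA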
[6] = molecular target: T3, Small ubiquitin-related modifier 1 (Homo sapiens, UniProt P63165); test: SUMO1 protein interaction blockers, potency – biochemical, fluorescence polarization, uHTS hits, dose response (AID 624382); assay type: functional; details: read-out: IC50_Mean
[7] = molecular target: T3, Small ubiquitin-related modifier 1; test: SUMO1 protein-protein binding blockers, potency – biochemical, FRET, dose response (AID 624383); assay type: functional; details: read-out: IC50_Mean
Genome polyprotein = Genome polyprotein (dengue virus type 2, UniProt P29990); test: flavivirus cap methylation enzyme inhibition – biochemical, confirmation dose response, primary screen (AID 588689); assay type: functional
Caspase-6 = molecular target: T4, Caspase-6 (Homo sapiens, UniProt P55212); test: inhibition of CASP6 peptide cleavage – biochemical, VEID-R110 fluorescence, cherry-pick, dose response (AID 720632)
T4 sequence (P55212 whole entry): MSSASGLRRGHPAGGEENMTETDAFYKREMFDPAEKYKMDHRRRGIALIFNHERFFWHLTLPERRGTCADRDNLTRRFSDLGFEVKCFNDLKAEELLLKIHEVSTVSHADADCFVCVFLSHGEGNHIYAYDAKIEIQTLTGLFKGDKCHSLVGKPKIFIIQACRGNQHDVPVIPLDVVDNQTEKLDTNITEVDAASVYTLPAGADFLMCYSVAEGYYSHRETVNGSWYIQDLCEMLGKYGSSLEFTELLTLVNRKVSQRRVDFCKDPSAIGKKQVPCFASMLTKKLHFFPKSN

[8] = molecular target: T5, Rac GTPase-activating protein 1 (Homo sapiens, UniProt Q9H0H5); test: blockers of MgcRacGAP-driven Rac1 GTP hydrolysis – biochemical, ADP Hunter fluorescence, primary and confirmatory, confirmation (AID 624330); assay type: functional
T5 sequence (Q9H0H5 whole entry): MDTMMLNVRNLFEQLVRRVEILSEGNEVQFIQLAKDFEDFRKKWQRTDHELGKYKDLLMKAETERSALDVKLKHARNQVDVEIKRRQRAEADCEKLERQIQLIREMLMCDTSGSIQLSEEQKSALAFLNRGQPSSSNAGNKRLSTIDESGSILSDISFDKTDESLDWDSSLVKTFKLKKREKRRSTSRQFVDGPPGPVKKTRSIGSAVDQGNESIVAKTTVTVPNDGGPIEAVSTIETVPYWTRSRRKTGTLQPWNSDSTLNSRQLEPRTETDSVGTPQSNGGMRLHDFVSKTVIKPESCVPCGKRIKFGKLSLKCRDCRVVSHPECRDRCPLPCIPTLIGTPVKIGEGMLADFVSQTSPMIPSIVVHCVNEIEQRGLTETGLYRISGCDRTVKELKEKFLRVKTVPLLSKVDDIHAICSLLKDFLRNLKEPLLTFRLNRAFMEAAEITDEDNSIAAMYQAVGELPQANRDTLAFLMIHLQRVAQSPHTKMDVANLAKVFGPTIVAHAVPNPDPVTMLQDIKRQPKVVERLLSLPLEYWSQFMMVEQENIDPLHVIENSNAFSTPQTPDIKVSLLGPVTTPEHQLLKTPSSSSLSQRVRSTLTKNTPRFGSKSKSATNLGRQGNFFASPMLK

Procathepsin L = Procathepsin L (Homo sapiens, UniProt P07711)
Aspartyl aminopeptidase = Aspartyl aminopeptidase (Plasmodium falciparum 3D7, UniProt Q8I2J3)
[9] = HepG2 cell cytotoxicity, dose response, cytotoxicity control for non-replicating M. tuberculosis project (AID 489018); assay type: functional; details: Mycobacterium tuberculosis
[10] = molecular target: Neurotensin receptor type 1 (Homo sapiens, UniProt P30989); assay type: functional;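 also: Image-based confirmatory dose-response assay measuring agonist activity at NTR1; NTR1-expressing U2OS osteosarcoma cells imaged for beta-arrestin GFP spot formation; agonist potency where compounds increase beta-arrestin recruitment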
[11] = THP-1 cell cytotoxicity, dose response, cytotoxicity control for non-replicating M. tuberculosis project (AID 489025); assay type: functional
cells [12] = assay type: functional
[13] = Luminescence Cell-Based Dose Retest to Confirm Inhibitors of Cancer Stem Cells. [Related pubchem assays (depositor defined):AID2717, AID2721]; assay type: functional; details: Homo sapiens
[14] = Vero E6 cell cytotoxicity, dose response, cytotoxicity control for non-replicating M. tuberculosis project, secondary assay (AID 492998); assay type: functional, VeroE6; details: Vero C1008
[15] = molecular target: T6, Heat shock factor protein 1 (Mus musculus, UniProt P38532); test: enhancement of HSF1-driven luciferase signal – cell-based, NIH3T3, luminescence, dose retest, confirmation (AID 435004); assay type: functional;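 also: stress induced by proteasome inhibitor MG132 added 30 min after compound; luciferase reporter driven by HSF1 response element in NIH3T3 cells; actives raise luminescence as potentiators of the MG132 stress response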
T6 sequence (P38532 whole entry): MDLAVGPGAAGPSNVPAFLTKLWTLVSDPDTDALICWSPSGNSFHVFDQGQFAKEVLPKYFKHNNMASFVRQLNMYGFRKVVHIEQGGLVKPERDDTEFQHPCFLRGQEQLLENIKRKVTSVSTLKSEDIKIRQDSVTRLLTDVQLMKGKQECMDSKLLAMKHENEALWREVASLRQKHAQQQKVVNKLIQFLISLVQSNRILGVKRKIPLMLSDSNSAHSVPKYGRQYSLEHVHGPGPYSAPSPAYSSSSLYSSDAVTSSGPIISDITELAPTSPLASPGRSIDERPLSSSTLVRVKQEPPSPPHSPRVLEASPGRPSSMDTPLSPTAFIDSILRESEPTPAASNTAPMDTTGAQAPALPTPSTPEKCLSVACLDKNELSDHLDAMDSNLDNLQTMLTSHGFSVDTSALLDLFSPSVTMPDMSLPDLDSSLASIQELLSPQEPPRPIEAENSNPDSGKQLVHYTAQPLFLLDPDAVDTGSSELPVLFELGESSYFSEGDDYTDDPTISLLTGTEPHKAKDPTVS

[16] = molecular target: T7, Polyadenylate-binding protein 1 (Homo sapiens, UniProt P11940); test: PABP inhibition in translation initiation, SAR follow-up (AID 435018); assay type: functional
[17] = molecular target: T8, Eukaryotic translation initiation factor 4H (Homo sapiens, UniProt Q15056); test: inhibitors of translation initiation factor eIF4H – SAR follow-up (AID 435011); assay type: functional
[18] = molecular target: T9, Microphthalmia-associated transcription factor (Homo sapiens, UniProt O75030); test: reducers of TRPM1 reporter luminescence, concentration series – cell-based, SK-MEL-5, cherry-picked, set 3, MITF inhibitor project, dose response (AID 493073); assay type: functional;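 also: SK-MEL-5 melanoma cells with luciferase driven by the MITF target TRPM1 promoter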
T9 sequence (O75030 whole entry): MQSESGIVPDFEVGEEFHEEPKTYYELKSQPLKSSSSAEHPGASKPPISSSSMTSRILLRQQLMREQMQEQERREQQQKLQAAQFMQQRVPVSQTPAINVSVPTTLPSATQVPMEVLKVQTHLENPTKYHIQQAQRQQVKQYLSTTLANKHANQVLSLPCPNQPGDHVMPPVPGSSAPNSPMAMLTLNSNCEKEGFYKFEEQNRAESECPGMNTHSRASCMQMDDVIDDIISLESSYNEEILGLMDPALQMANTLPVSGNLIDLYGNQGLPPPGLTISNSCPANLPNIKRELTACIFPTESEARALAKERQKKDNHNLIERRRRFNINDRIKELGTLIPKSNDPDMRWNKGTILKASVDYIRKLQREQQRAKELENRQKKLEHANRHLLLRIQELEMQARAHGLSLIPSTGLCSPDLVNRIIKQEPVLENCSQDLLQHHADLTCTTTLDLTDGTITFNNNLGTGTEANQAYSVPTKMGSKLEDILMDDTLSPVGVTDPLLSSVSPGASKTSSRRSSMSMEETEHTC

cells [19] = assay type: functional, cell-based
[20] = alpha-synuclein stem-loop translation blockers – luminescence, H4 neuroglioblastoma cells, dose confirmation, confirmation (AID 2454); assay type: functional, cell-based;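 also: H4 neuroglioblastoma cells carrying an alpha-synuclein 5'UTR luciferase reporter; potency for inhibition of the luciferase signal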
[21] = luciferase reporter signal reduction – luminescence, H4-C neuroglioblastoma cells, dose response (AID 2458); assay type: functional, cell-based;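 also: H4 neuroglioblastoma cells stably carrying a luciferase reporter gene fusion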
[22] = luciferase reporter signal suppression in cells – H4 neuroglioma cells, luminescence, dose response (AID 1990); assay type: functional, cell-based
[23] = Luminescence Cell-Based Dose Response HTS to Identify Inhibitors of 5'UTR Stem-Loop Driven Prion Protein mRNA Translation in H4 Neuroglioblastoma Cells. [Related pubchem assays: 1827 (Project Summary), 1813 (Primary HTS)]; assay type: functional
[24] = molecular target: T7, Polyadenylate-binding protein 1; test: blockers of PABP interaction with poly(A) – biochemical, fluorescence polarization, […] (AID 2014)
[25] = molecular target: T8, Eukaryotic translation initiation factor 4H; test: eIF4H binding inhibition – biochemical, uHTS, fluorescence polarization, translation initiation inhibitor project, primary screen (AID 2012)
[26] = molecular target: Induced myeloid leukemia cell differentiation protein Mcl-1 (Homo sapiens, UniProt Q07820); assay type: functional
SUMO-activating enzyme [27] = molecular target: T10, SUMO-activating enzyme (Homo sapiens, UniProt Q9UBT2); test: blockers of SAE1/SAE2–UBC9 SUMO transfer – biochemical, HTRF, uHTS, primary screen (AID 2006); assay type: protein-complex assay
SUMO-activating enzyme [28] = molecular target: T10, SUMO-activating enzyme; test: blockers of UBC9-mediated SUMO conjugation – biochemical, AlphaScreen, SUMOylation inhibitor project, confirmation (AID 2018); assay type: functional

T2 sequence (Q99705 whole entry): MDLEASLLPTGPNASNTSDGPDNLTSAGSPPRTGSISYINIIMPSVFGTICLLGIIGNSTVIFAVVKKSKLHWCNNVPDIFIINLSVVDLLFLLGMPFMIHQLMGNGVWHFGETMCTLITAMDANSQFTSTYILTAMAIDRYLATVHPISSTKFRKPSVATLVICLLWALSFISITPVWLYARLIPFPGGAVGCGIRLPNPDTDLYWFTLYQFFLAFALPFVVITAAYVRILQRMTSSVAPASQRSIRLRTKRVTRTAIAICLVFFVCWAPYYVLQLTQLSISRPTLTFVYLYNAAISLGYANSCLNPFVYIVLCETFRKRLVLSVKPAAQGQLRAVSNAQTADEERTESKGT
Sequence of Aspartyl aminopeptidase (Q8I2J3 whole entry): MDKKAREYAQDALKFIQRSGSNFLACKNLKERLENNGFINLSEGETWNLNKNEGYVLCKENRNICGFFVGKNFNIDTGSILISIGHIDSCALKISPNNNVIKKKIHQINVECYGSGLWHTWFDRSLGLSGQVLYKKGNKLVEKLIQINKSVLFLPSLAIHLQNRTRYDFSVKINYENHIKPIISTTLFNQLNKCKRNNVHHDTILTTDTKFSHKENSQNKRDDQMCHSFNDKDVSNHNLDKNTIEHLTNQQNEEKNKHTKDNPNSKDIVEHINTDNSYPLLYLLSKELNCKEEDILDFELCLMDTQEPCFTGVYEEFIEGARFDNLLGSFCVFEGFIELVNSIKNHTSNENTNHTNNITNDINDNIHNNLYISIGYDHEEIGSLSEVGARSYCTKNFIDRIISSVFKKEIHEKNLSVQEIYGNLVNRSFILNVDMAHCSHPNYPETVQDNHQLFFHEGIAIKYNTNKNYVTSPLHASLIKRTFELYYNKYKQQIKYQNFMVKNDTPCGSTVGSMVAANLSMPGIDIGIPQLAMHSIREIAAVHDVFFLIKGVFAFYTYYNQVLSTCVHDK
T3 sequence (P63165 whole entry): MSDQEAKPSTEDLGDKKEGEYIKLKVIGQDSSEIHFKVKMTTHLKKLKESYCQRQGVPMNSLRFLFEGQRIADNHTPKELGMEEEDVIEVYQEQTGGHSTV
Sequence of Neurotensin receptor type 1 (P30989 whole entry): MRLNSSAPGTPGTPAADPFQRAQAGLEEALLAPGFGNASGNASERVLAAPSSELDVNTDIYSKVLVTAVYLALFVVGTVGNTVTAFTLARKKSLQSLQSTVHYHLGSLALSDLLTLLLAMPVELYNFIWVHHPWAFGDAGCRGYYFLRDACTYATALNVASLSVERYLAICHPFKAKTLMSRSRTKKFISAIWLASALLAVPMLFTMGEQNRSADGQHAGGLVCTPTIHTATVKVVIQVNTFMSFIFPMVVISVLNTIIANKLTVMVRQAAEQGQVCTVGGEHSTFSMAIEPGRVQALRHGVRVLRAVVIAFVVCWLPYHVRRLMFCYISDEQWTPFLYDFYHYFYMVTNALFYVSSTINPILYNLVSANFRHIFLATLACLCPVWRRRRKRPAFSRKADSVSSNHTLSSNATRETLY
T7 sequence (P11940 whole entry): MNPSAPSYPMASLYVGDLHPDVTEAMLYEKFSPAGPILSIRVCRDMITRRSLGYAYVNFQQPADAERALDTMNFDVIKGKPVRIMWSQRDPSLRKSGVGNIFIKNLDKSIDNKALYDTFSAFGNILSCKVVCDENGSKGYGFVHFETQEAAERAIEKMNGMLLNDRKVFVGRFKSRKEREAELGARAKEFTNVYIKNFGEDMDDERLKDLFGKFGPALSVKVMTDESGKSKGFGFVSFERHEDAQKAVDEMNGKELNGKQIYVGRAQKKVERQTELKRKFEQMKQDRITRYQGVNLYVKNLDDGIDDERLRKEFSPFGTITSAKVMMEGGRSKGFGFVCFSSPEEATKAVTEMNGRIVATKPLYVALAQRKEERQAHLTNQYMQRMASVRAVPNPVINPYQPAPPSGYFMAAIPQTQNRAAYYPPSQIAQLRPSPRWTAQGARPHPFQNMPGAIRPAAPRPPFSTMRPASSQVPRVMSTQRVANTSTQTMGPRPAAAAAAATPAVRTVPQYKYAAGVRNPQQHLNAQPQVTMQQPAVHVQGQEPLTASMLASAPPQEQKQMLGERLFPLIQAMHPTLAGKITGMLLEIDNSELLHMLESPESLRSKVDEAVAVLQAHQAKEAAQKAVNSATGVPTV
Sequence of Procathepsin L (P07711 whole entry): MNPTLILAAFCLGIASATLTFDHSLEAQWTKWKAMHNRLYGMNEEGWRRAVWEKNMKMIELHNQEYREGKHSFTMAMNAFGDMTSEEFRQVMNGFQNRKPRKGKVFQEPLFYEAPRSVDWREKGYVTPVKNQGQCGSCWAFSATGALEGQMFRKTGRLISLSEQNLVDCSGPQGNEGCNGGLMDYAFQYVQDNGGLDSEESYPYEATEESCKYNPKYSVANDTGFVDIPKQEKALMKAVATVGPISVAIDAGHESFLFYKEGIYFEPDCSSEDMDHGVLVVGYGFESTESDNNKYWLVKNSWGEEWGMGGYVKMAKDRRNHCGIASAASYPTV
Sequence of Intestinal-type alkaline phosphatase (P09923 whole entry): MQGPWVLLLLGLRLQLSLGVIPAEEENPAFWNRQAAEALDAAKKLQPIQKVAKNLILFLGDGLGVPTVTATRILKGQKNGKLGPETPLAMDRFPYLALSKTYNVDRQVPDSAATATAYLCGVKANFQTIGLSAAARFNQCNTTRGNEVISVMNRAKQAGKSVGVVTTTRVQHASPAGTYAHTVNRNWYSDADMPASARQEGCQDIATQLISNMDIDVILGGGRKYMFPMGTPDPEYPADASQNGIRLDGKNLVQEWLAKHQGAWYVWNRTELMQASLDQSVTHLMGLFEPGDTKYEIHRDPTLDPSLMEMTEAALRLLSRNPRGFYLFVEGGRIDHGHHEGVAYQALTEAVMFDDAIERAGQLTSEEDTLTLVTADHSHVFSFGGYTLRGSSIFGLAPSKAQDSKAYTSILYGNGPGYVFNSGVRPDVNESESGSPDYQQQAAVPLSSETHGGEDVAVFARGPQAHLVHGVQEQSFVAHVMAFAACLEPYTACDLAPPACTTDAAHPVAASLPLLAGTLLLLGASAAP
T10 sequence (Q9UBE0 whole entry): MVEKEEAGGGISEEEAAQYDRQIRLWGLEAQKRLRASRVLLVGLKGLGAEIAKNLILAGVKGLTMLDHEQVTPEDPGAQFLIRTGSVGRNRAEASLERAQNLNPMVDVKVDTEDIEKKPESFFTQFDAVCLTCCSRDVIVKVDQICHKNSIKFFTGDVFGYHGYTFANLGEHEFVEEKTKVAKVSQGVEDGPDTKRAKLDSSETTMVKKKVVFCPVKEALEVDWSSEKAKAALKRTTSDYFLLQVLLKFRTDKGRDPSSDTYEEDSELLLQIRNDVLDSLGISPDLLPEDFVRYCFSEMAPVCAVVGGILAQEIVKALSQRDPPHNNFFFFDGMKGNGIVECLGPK
T10 sequence (Q9UBT2 whole entry): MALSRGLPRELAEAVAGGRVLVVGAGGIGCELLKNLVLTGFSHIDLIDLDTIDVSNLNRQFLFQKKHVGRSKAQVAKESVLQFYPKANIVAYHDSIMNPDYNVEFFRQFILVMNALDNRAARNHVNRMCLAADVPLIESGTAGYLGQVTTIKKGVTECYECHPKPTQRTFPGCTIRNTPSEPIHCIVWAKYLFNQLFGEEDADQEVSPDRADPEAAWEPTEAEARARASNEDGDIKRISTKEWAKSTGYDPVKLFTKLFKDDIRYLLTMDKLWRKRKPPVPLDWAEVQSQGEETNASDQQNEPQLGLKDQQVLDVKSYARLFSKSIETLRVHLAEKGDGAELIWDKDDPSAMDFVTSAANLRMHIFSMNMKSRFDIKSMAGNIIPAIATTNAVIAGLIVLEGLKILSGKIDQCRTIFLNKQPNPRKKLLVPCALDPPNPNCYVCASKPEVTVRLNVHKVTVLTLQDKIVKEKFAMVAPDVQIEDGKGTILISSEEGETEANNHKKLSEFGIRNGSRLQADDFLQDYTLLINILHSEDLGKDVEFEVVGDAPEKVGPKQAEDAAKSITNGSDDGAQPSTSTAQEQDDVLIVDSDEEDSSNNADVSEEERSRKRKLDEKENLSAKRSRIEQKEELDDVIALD
Sequence of Induced myeloid leukemia cell differentiation protein Mcl-1 (Q07820 whole entry): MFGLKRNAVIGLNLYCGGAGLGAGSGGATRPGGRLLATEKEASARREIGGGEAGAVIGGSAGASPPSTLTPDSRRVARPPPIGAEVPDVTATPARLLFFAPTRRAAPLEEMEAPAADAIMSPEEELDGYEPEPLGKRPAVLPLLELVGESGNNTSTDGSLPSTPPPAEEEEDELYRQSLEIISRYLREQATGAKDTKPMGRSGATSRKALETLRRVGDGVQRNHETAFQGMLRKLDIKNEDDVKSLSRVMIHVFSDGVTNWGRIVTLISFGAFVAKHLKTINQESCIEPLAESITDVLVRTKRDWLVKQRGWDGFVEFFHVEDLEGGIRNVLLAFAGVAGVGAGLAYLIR

## COc1cc(OC)c(S(=O)(=O)N2CCCCC2)cc1S(=O)(=O)N1CCCCC1
[1]
  IC50: > 20 µM (inactive)
[2]
  IC50: > 20 µM (inactive)
[3]
  IC50: 7.02 µM (active)
[4]
  IC50: > 43.8 µM (not active)

## CCn1c2ccccc2c2cc(NC(=O)c3coc(=O)c(Br)c3)ccc21
[5]
  IC50: 55.6 µM (inactive)

## CNC(S)=Nc1cccc(C(=O)OC)c1
HeLa
  AC50: 213 µM (active)

## CC(=O)Nc1ccc(S(=O)(=O)Nc2nc3ccccc3nc2Nc2ccc(C(=O)O)c(O)c2)cc1
ORF 73
  AC50: 42.3 µM (active)
[6]
  IC50: > 66.6 µM (inactive)
[7]
  IC50: 88.1 µM (inactive)
Genome polyprotein
  IC50: > 100 µM (active)
Caspase-6
  AC50: 13.2 µM (active)
[8]
  IC50: 166 µM (active)

## CCOC(=O)c1ccc(NC(=O)Nn2cnnc2)cc1
Procathepsin L
  IC50: > 59.6 µM (not active)
Aspartyl aminopeptidase
  IC50: 2.09 µM (active)

## Cc1ccc2c(c1)c1c(n2CC(O)CNC2CCCCC2)CCCC1 (configuration not stated)
[9]
  CC50: 11.9 µM (active)
[10]
  EC50: 17 µM (active)
[11]
  CC50: 12.1 µM (active)
Cells [12]
  IC50: 33.4 µM (active)
[13]
  AC50: 9.21 µM (active)
[14]
  CC50: > 20 µM (active)

## CCOc1cc(/C=C2/C(=O)ON=C2C)ccc1OCc1ccc(F)cc1
[10]
  EC50: 16.2 µM (active)
[15]
  EC50: 8.12 µM (active)

## Cc1ccccc1N(CC(=O)NC1CCCCC1)C(=O)CCCC(=O)Nc1ccccn1
[3]
  IC50: > 43.8 µM (not active)
[4]
  IC50: > 43.8 µM (not active)

## CCc1ccccc1N=C(S)Nn1cnnc1
Procathepsin L
  IC50: > 59.6 µM (not active)
Aspartyl aminopeptidase
  IC50: 3.03 µM (active)

## CC(C)(C)NN/C=C1\C(=O)N(c2ccc(Cl)cn2)C(=O)c2ccccc21
[5]
  IC50: > 100 µM (inactive)

## CCOC(=O)Cc1c(Sc2ccccc2)c2cc(C)ccc2n1C
[16]
  IC50: > 100 µM (inactive)
[17]
  IC50: > 100 µM (inactive)

## Cc1ccc(C(=O)c2cccc(N)c2)cc1C
[18]
  AC50: 3.62 µM (active)
Cells [19]
  EC50: 2.86 µM (active)
[20]
  EC50: 1.46 µM (active)
[21]
  EC50: 1.11 µM (active)
[22]
  EC50: < 0.1 µM (active)
[23]
  EC50: < 0.1 µM (active)

## O=C(C1CCCCN1Cc1ccc(Cl)cc1)N1CCN(c2ccc([N+](=O)[O-])cc2)CC1 (configuration not stated)
[1]
  IC50: 1.6 µM (active)
[2]
  IC50: 1.8 µM (active)

## Cc1ccc(OCC(=O)N/N=C/C=C/c2ccco2)cc1
[24]
  IC50: 45.5 µM (active)
[25]
  IC50: 15.6 µM (active)

## NC(=S)n1nc(-c2ccc([N+](=O)[O-])cc2)c(/N=N/c2cccc(Cl)c2)c1O
[26]
  IC50: 1.44 µM (active)
SUMO-activating enzyme [27]
  IC50: 51.5 µM (active)
SUMO-activating enzyme [28]
  IC50: 3.29 µM (active)
